The NIST ThermoML archive (doi:10.1021/acs.jced.5b00152)

Conditions: Liquid; for viscosity: Capillary tube (Ostwald / Ubbelohde) method; for mass density: Vibrating tube method

CCO [ethanol]
Conditions | mass density [kg/m3] | viscosity [mPa·s]
298.15 K, 1022 kPa | 785.87 | 1.086
298.15 K, 3922 kPa | 788.69 | 1.112
298.15 K, 8793 kPa | 792.53 | 1.148
298.15 K, 12491 kPa | 795.7 | 1.175
298.15 K, 17711 kPa | 799.91 | 1.213
298.15 K, 21982 kPa | 802.87 | 1.244
298.15 K, 24097 kPa | 804.5 | 1.26
298.15 K, 26940 kPa | 806.36 | 1.28
298.15 K, 29139 kPa | 807.89 | 1.296
323.15 K, 3237 kPa | 766.361 | 0.711
323.15 K, 9248 kPa | 772.358 | 0.7435
323.15 K, 12839 kPa | 775.758 | 0.7616
323.15 K, 18790 kPa | 780.78 | 0.7928
323.15 K, 23256 kPa | 784.532 | 0.8153
323.15 K, 25042 kPa | 786.147 | 0.8236
323.15 K, 27936 kPa | 788.458 | 0.8367
323.16 K, 626 kPa | 763.659 | 0.6978
323.16 K, 15104 kPa | 777.664 | 0.7732
333.27 K, 16623 kPa | 770.196 | 0.6592
333.28 K, 909 kPa | 754.25 | 0.5872
333.28 K, 1891 kPa | 756.361 | 0.5916
333.28 K, 5093 kPa | 758.805 | 0.6065
333.28 K, 9067 kPa | 762.841 | 0.6251
333.28 K, 12887 kPa | 766.568 | 0.6421
333.28 K, 22108 kPa | 775.145 | 0.684
333.28 K, 25690 kPa | 777.944 | 0.6985
333.28 K, 29272 kPa | 780.933 | 0.7133

CCCCCCCO [heptan-1-ol]
Conditions | mass density, 298.15 K [kg/m3] | mass density, 323.15 K [kg/m3] | viscosity, 298.15 K [mPa·s] | viscosity, 323.15 K [mPa·s]
2002 kPa | 819.81 | – | 5.986 | –
2006 kPa | – | 802.09 | – | 2.779
3999 kPa | 821.2 | – | 6.11 | –
4003 kPa | – | 803.5 | – | 2.832
6000 kPa | – | 804.98 | – | 2.887
6006 kPa | 822.3 | – | 6.233 | –
7993 kPa | – | 806.39 | – | 2.942
8000 kPa | 823.7 | – | 6.359 | –
10000 kPa | – | 807.79 | – | 3
10002 kPa | 824.8 | – | 6.487 | –
12997 kPa | 826.41 | – | 6.683 | –
13006 kPa | – | 809.85 | – | 3.085
15999 kPa | 828.31 | – | 6.883 | –
16007 kPa | – | 811.88 | – | 3.173
18995 kPa | 831.3 | – | 7.086 | –
19004 kPa | – | 813.79 | – | 3.263
22001 kPa | 833.2 | – | 7.297 | –
22008 kPa | – | 815.68 | – | 3.354
25000 kPa | 835.1 | – | 7.511 | –
25007 kPa | – | 817.57 | – | 3.446

CCCCCCC [heptane]
Conditions | mass density [kg/m3] | viscosity [mPa·s]
293.25 K, 2103 kPa | 685.58 | 0.4229
293.25 K, 3666 kPa | 687.27 | 0.4317
293.25 K, 6195 kPa | 689.52 | 0.4449
293.25 K, 10385 kPa | 693.22 | 0.4681
293.25 K, 14421 kPa | 696.48 | 0.4907
293.25 K, 17447 kPa | 698.88 | 0.5062
293.25 K, 20472 kPa | 701.01 | 0.5237
293.25 K, 23543 kPa | 703.3 | 0.5407
293.25 K, 26611 kPa | 705.5 | 0.5567
313.07 K, 11204 kPa | 678.28 | 0.3782
313.07 K, 17225 kPa | 683.61 | 0.4049
313.07 K, 20247 kPa | 686.13 | 0.4185
313.07 K, 29805 kPa | 693.98 | 0.4596
313.08 K, 2050 kPa | 669.15 | 0.3388
313.08 K, 4083 kPa | 671.15 | 0.3472
313.08 K, 6733 kPa | 673.77 | 0.359
313.08 K, 14195 kPa | 681.03 | 0.3912
313.08 K, 23266 kPa | 688.54 | 0.4314
313.08 K, 26286 kPa | 691.26 | 0.4449
332.77 K, 4091 kPa | 654.57 | 0.2886
332.78 K, 2084 kPa | 652.25 | 0.2805
332.78 K, 7031 kPa | 658.26 | 0.2994
332.78 K, 11151 kPa | 662.67 | 0.3143
332.78 K, 14177 kPa | 665.56 | 0.3261
332.78 K, 17172 kPa | 668.79 | 0.3367
332.78 K, 20193 kPa | 671.47 | 0.3472
332.78 K, 23214 kPa | 674.57 | 0.3581
332.78 K, 26231 kPa | 677.28 | 0.3689
352.39 K, 2184 kPa | 635.33 | 0.2346
352.39 K, 4102 kPa | 637.96 | 0.2413
352.39 K, 11159 kPa | 646.85 | 0.2635
352.39 K, 14169 kPa | 650.4 | 0.2732
352.39 K, 17199 kPa | 653.84 | 0.283
352.39 K, 29758 kPa | 666.6 | 0.3207
352.4 K, 7146 kPa | 641.83 | 0.2514
352.4 K, 20204 kPa | 657.05 | 0.2922
352.4 K, 23212 kPa | 660.04 | 0.3015
352.4 K, 26228 kPa | 663.06 | 0.3106
